According to patent publication US20090030058A1, “TOSYLATE SALT OF 6- (4-BR0M0-2-CHL0R0PHENYLAMIN0) -7-FLUORO-N- (2-HYDROXYETHOXY) -3-METHYL-3H-BENZIMI DAZOLE- 5 - CARBOXAMIDE , MEK INHIBITOR USEFUL IN THE TREATMENT OF CANCER” (priority 2005, published 2009):
“Also recorded” adds a separate entry of the source. Structures can show the parent of a compound that is named as a salt.

What was measured:
[1] = Solubility in various media (amount dissolved after stirring with excess solid); format: physicochemical
Description: Due to the observation of the tosylate salt remaining as the salt form in solution, further investigations were performed to probe the solubility of the salts in various media. The amounts dissolved (mg/mL) in the various media after stirring either the Compound 1 free base or the Compound 1 tosylate salt with excess solid for 10 minutes and 60 minutes are shown in Table 4 (SIF=Simulated intestinal fluid; FaSIF=Fasted Simulated Intestinal Fluid).

[2] = Intrinsic and powder dissolution rate (pH 6.5); format: physicochemical
Description: In order to investigate the effects of salts on the release rate, an intrinsic dissolution (pH 6.5) was performed.

[3] = Dog study, plasma levels of Compound 1 after oral tablets; format: in vivo, Alderley Park Beagle Dogs; conditions: fasted dogs, 50 mg or 150 mg fbe
Description: A dog study was performed to measure plasma levels of Compound 1 in fasted dogs following oral administration of 50 mg free base equivalent (fbe) doses in tablets of the free base and the tosylate salt (form 2 of the 1:1 stoichiometric salt), and 150 mg fbe as 3×50 mg tablets of the tosylate salt.
Tablets of Compound 1 were manufactured using a standard direct compression process. Three batches were made containing Compound 1 free base or Compound 1 tosylate as the active pharmaceutical ingredient (API). The generic formulation contained API (12.5% w/w), fast flo lactose (72.0% w/w), Avicel PH102 (10.0% w/w), AcDiSol (4.0% w/w), sodium lauryl sulfate (0.5% w/w) and magnesium stearate (1.0% w/w). The required quantity of each formulation component, excluding magnesium stearate, was weighed and charged to a mixing vessel. The powders were then mixed for 30 minutes using a tumble blender. The powder mix was then sieved through a 425 μm sieve before being mixed for a further 15 minutes using the tumble blender. […] The required quantity of powder mix for each tablet was weighed individually and charged to the die before being compressed manually using a hand-operated press. […]
Dogs were fed about 400 g of Harlan Teklad 2021 each day and allowed water ad libitum. […] Plasma (50 mcL) was analysed for Compound 1 concentration.

[4] = Disproportionation study, slurry in pH 6.5 buffer, XRPD; format: physicochemical; conditions: for disproportionation of the salt to the free base in buffer: suspension/slurry in pH 6.5 buffer, XRPD, p-toluenesulfonate
Description: The characteristics of the salts in liquids were investigated by slurrying the material in a range of solvents including a buffer of pH 6.5 to simulate physiological conditions.
Compound 1 tosylate salt was slurried in pH 6.5 buffer at room temperature at a concentration of 100 mg in 2 mL. Samples were taken at 15 minute intervals up to 120 minutes.
In order to prepare the pH 6.5 slurry of Compound 1 tosylate salt, a buffer was first prepared by producing a first solution (Solution A) by adding 90.8 mg of potassium dihydrogen phosphate to a conical 100 mL flask. Deionised water was added to mark ensuring all solid had dissolved. A second solution (Solution B) was prepared by adding 118.8 mg of disodium hydrogen phosphate to a conical 100 mL flask and deionised water was added to mark ensuring all solid had dissolved. Then 64 mL of solution A was mixed with 32 mL of solution B to form a pH 6.5 buffer
The slurry was prepared by adding 100 mg of Compound 1 tosylate to a 10 mL vial and to this was added 2 mL of the pH 6.5 buffer (prepared above), a magnetic stir bar was added and vial placed on a magnetic stirrer. Small aliquots of the suspension were removed after 15 minutes, 30 minutes, 45 minutes, 60 minutes and 120 minutes and each sample was placed on a metal plate on the D8 Diffractometer and an XRPD pattern determined immediately. The results after 0, 15 and 60 minutes are shown in FIGS. 7, 8 and 9, respectively.

[5] = Percent dissolution after 1 hour, tablet and powder form; format: physicochemical
Description: Dissolution of the free base of Compound 1 as well as the tosylate salt of Compound 1 was investigated at the 1 hour time point in both tablet form and powder form. The dissolution rate of the tosylate salt was generally much higher than that of the free base.

[6] = Solid state storage stability (disproportionation); format: physicochemical; conditions: 3 months storage at 40° C. and 5% relative humidity
[7] = Particle size reduction (milling, micronisation), PXRD; format: physicochemical; conditions: pestle and mortar 10 minutes or spiral jet mill, listed as tosylate salt, p-toluenesulfonate
Description: In order to investigate the potential for the materials to become amorphous during particle size reduction procedures, batches of the material were milled either by grinding the material in a pestle and mortar for 10 minutes or by micronising using conventional micronising equipment, in this case, a 2″ Spiral jet mill manufactured by Gravesend engineering. The products were subjected to PXRD as described in Example 4 above.

[8] = system: constitutively active MEK1 (2-393); assay: MEK1 kinase assay (33P incorporation onto ERK2); format: biochemical
Description: N-terminal 6 His-tagged, constitutively active MEK1 (2-393) is expressed in E. coli and protein is purified by conventional methods (Ahn et al., Science 1994, 265, 966-970). The activity of MEK1 is assessed by measuring the incorporation of γ-^33P-phosphate from γ-^33P-ATP onto N-terminal His tagged ERK2, which is expressed in E. coli and is purified by conventional methods, in the presence of MEK1. The assay is carried out in 96-well polypropylene plate. The incubation mixture (100 μL) comprises of 25 mM Hepes, pH 7.4, 10 mM MgCl2, 5 mM β-glycerolphosphate, 100 μM sodium orthovanadate, 5 mM DTT, 5 nM MEK1, and 1 μM ERK2. Inhibitors are suspended in DMSO, and all reactions, including controls are performed at a final concentration of 1% DMSO. Reactions are initiated by the addition of 10 μM ATP (with 0.5 μCi γ-^33P-ATP/well) and incubated at ambient temperature for 45 minutes. Equal volume of 25% TCA is added to stop the reaction and precipitate the proteins. Precipitated proteins are trapped onto glass fiber B filterplates, and excess labeled ATP washed off using a Tomtec MACH III harvestor. Plates are allowed to air-dry prior to adding 30 μL/well of Packard Microscint 20, and plates are counted using a Packard TopCount.

[9] = Relative stability of polymorphs; format: physicochemical; conditions: 1:1 anhydrous salt

## Cn1cnc2c(F)c(Nc3ccc(Br)cc3Cl)c(C(=O)NOCCO)cc21 [Compound 1 tosylate, 6-(4-bromo-2-chloro-phenylamino)-7-fluoro-3-methyl-3H-benzoimidazole-5-carboxylic acid (2-hydroxy-ethoxy)-amide p-toluenesulfonate]
[1]; FaSSIF, 10 min, p-toluenesulfonate
  amount dissolved: 0.19 mg/mL
[1]; FaSSIF, 60 min, p-toluenesulfonate
  amount dissolved: 0.04 mg/mL
[1]; H2O, 10 min, p-toluenesulfonate
  amount dissolved: 0.058 mg/mL
[1]; SIF pH 6.5, 10 min, p-toluenesulfonate
  amount dissolved: 0.041 mg/mL
[1]; SIF pH 6.5, 60 min, p-toluenesulfonate
  amount dissolved: 0.020 mg/mL
[1]; Sorenson's buffer, 10 min, p-toluenesulfonate
  amount dissolved: 0.019 mg/mL
[1]; Sorenson's buffer, 60 min, p-toluenesulfonate
  amount dissolved: 0.007 mg/mL
[1]; pH 1.2, 10 min, p-toluenesulfonate
  amount dissolved: 0.41 mg/mL
[1]; pH 1.2, 60 min, p-toluenesulfonate
  amount dissolved: 0.19 mg/mL
[2]
  intrinsic dissolution rate relative to the free base: comparable to that of the free base
  powder dissolution rate relative to the free base: 60 times
[3]
  exposure (plasma Compound 1) versus free base: substantial increase in exposure
[4]; pH 6.5 buffer, room temperature, 100 mg in 2 mL
  time the salt remains present in the slurry: up to 75 minutes
[4]; listed as Compound 1 tosylate salt
  disproportionation of the salt to the free base in buffer: a small amount of free base is produced after 15 minutes
[4]
  disproportionation of the salt to the free base in buffer: little disproportionation
[5]; FaSSIF, 50 mg (fbe) tablets, p-toluenesulfonate
  percent dissolution after 1 hour: 23.05%
[5]; FaSSIF, powder, p-toluenesulfonate
  percent dissolution after 1 hour: 31.48%
[5]; SIF pH 6.5, 50 mg (fbe) tablets, p-toluenesulfonate
  percent dissolution after 1 hour: 6.66%
[5]; SIF pH 6.5, powder, p-toluenesulfonate
  percent dissolution after 1 hour: 5.16%
[6]
  disproportionation in the solid state: no disproportionation
[7]
  resistance to becoming amorphous on milling and micronisation: highly resistant to becoming amorphous; also recorded: unique resistance to becoming amorphous

## Cn1cnc2c(F)c(Nc3ccc(Br)cc3Cl)c(C(=O)NOCCO)cc21 [Compound 1, 6-(4-bromo-2-chloro-phenylamino)-7-fluoro-3-methyl-3H-benzoimidazole-5-carboxylic acid (2-hydroxy-ethoxy)-amide]
[1]; FaSSIF, 10 min, listed as Compound 1 free base
  amount dissolved: 0.01 mg/mL
[1]; FaSSIF, 60 min, listed as Compound 1 free base
  amount dissolved: 0.01 mg/mL
[1]; H2O, 10 min, listed as Compound 1 free base
  amount dissolved: 0.004 mg/mL
[1]; SIF pH 6.5, 10 min, listed as Compound 1 free base
  amount dissolved: 0.004 mg/mL
[1]; SIF pH 6.5, 60 min, listed as Compound 1 free base
  amount dissolved: 0.004 mg/mL
[1]; Sorenson's buffer, 10 min, listed as Compound 1 free base
  amount dissolved: 0.004 mg/mL
[1]; Sorenson's buffer, 60 min, listed as Compound 1 free base
  amount dissolved: 0.004 mg/mL
[1]; pH 1.2, 10 min, listed as Compound 1 free base
  amount dissolved: 0.14 mg/mL
[1]; pH 1.2, 60 min, listed as Compound 1 free base
  amount dissolved: 0.13 mg/mL
[8]
  activity in MEK1 assay: activity
[5]; FaSSIF, 50 mg (fbe) tablets, listed as Compound 1 Free base
  percent dissolution after 1 hour: 4.54%
[5]; FaSSIF, powder, listed as Compound 1 Free base
  percent dissolution after 1 hour: 4.49%
[5]; SIF pH 6.5, 50 mg (fbe) tablets, listed as Compound 1 Free base
  percent dissolution after 1 hour: 2.61%
[5]; SIF pH 6.5, powder, listed as Compound 1 Free base
  percent dissolution after 1 hour: 2.36%

## Cn1cnc2c(F)c(Nc3ccc(Br)cc3Cl)c(C(=O)NOCCO)cc21 [Form 2, 6-(4-bromo-2-chloro-phenylamino)-7-fluoro-3-methyl-3H-benzoimidazole-5-carboxylic acid (2-hydroxy-ethoxy)-amide p-toluenesulfonate]
[9]
  stability relative to the other polymorph: more stable than the salt in the form of the polymorph Form 1
[4]
  disproportionation of the salt to the free base in buffer: some kinetic resistance to disproportionate
